According to PubChem BioAssay AID1963836 (Molecular Pharmacology Branch, DTP, NCI, 2024):

System: 857933-349-R-J2-PDC complex spheroid viability
Test: Anticancer human tumor 857933-349-R-J2-PDC patient-derived colon adenocarcinoma cell line growth inhibition [POLQ]
Details: for IC50: curve of first compound; for viability, T/C: stronger effect = lower value
Method in brief: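 Three-cell-type spheroids modelling solid tumor plus stroma served as the readout system; POL inhibitors were tested individually and in combination, concentration ranges set by clinical Cmax where known.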

[1] = second compound 0.0316 µM, first compound 0.00316 µM
[2] = second compound 0.0316 µM, first compound 0.01 µM
[3] = second compound 0.0316 µM, first compound 0.0316 µM
[4] = second compound 0.0316 µM, first compound 0.1 µM
[5] = second compound 0.0316 µM, first compound 0.316 µM
[6] = second compound 0.0316 µM, first compound 1 µM
[7] = second compound 0.1 µM, first compound 0.00316 µM
[8] = second compound 0.1 µM, first compound 0.01 µM
[9] = second compound 0.1 µM, first compound 0.0316 µM
[10] = second compound 0.1 µM, first compound 0.1 µM
[11] = second compound 0.1 µM, first compound 0.316 µM
[12] = second compound 0.1 µM, first compound 1 µM
[13] = second compound 0.316 µM, first compound 0.00316 µM
[14] = second compound 0.316 µM, first compound 0.01 µM
[15] = second compound 0.316 µM, first compound 0.0316 µM
[16] = second compound 0.316 µM, first compound 0.1 µM
[17] = second compound 0.316 µM, first compound 0.316 µM
[18] = second compound 0.316 µM, first compound 1 µM
[19] = second compound 1 µM, first compound 0.00316 µM
[20] = second compound 1 µM, first compound 0.01 µM
[21] = second compound 1 µM, first compound 0.0316 µM
[22] = second compound 1 µM, first compound 0.1 µM
[23] = second compound 1 µM, first compound 0.316 µM
[24] = second compound 1 µM, first compound 1 µM
[25] = second compound 3.16 µM, first compound 0.00316 µM
[26] = second compound 3.16 µM, first compound 0.01 µM
[27] = second compound 3.16 µM, first compound 0.0316 µM
[28] = second compound 3.16 µM, first compound 0.1 µM
[29] = second compound 3.16 µM, first compound 0.316 µM
[30] = second compound 3.16 µM, first compound 1 µM
[31] = second compound 10 µM, first compound 0.00316 µM
[32] = second compound 10 µM, first compound 0.01 µM
[33] = second compound 10 µM, first compound 0.0316 µM
[34] = second compound 10 µM, first compound 0.1 µM
[35] = second compound 10 µM, first compound 0.316 µM
[36] = second compound 10 µM, first compound 1 µM
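Further: spheroids exposed to compounds for seven days before readout.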

SMILES: C=CCn1c(=O)c2cnc(Nc3ccc(N4CCN(C)CC4)cc3)nc2n1-c1cccc(C(C)(C)O)n1 + Nc1ccc(C#CCN(C(=O)Cc2ncc(C(F)(F)F)cc2C(F)(F)F)c2ccc(F)cc2)nn1
- IC50 (second compound 0.0316 µM): > 1000 nM
- IC50 (second compound 0.1 µM): > 1000 nM
- IC50 (second compound 0.316 µM): > 1000 nM
- IC50 (second compound 1 µM): > 1000 nM
- IC50 (second compound 3.16 µM): > 1000 nM
- IC50 (second compound 10 µM): > 1000 nM
- viability, T/C [1]: 105%
- viability, T/C [2]: 98.7%
- viability, T/C [3]: 91.4%
- viability, T/C [4]: 105%
- viability, T/C [5]: 88.8%
- viability, T/C [6]: 74.7%
- viability, T/C [7]: 105%
- viability, T/C [8]: 122%
- viability, T/C [9]: 95.4%
- viability, T/C [10]: 91.9%
- viability, T/C [11]: 88.1%
- viability, T/C [12]: 73.8%
- viability, T/C [13]: 60.7%
- viability, T/C [14]: 95.8%
- viability, T/C [15]: 94%
- viability, T/C [16]: 88.7%
- viability, T/C [17]: 103%
- viability, T/C [18]: 75.4%
- viability, T/C [19]: 96.5%
- viability, T/C [20]: 93.6%
- viability, T/C [21]: 90.6%
- viability, T/C [22]: 106%
- viability, T/C [23]: 102%
- viability, T/C [24]: 74.4%
- viability, T/C [25]: 102%
- viability, T/C [26]: 93.2%
- viability, T/C [27]: 74.9%
- viability, T/C [28]: 101%
- viability, T/C [29]: 68.8%
- viability, T/C [30]: 75.9%
- viability, T/C [31]: 113%
- viability, T/C [32]: 106%
- viability, T/C [33]: 94%
- viability, T/C [34]: 78.7%
- viability, T/C [35]: 85.9%
- viability, T/C [36]: 66.5%

SMILES: CCCS(=O)(=O)Nc1ccc(F)c(C(=O)c2c[nH]c3ncc(-c4ccc(Cl)cc4)cc23)c1F + Nc1ccc(C#CCN(C(=O)Cc2ncc(C(F)(F)F)cc2C(F)(F)F)c2ccc(F)cc2)nn1
- IC50 (second compound 0.0316 µM): 6170 nM
- IC50 (second compound 0.1 µM): 6220 nM
- IC50 (second compound 0.316 µM): 5990 nM
- IC50 (second compound 1 µM): 6430 nM
- IC50 (second compound 3.16 µM): 6480 nM
- IC50 (second compound 10 µM): 6480 nM
- viability, T/C [3]: 103%
- viability, T/C [4]: 102%
- viability, T/C [5]: 102%
- viability, T/C [6]: 102%
- viability, T/C (second compound 0.0316 µM, first compound 3.16 µM): 97.5%
- viability, T/C (second compound 0.0316 µM, first compound 10 µM): 15.6%
- viability, T/C [9]: 93.5%
- viability, T/C [10]: 112%
- viability, T/C [11]: 88.6%
- viability, T/C [12]: 104%
- viability, T/C (second compound 0.1 µM, first compound 3.16 µM): 102%
- viability, T/C (second compound 0.1 µM, first compound 10 µM): 14.9%
- viability, T/C [15]: 103%
- viability, T/C [16]: 89%
- viability, T/C [17]: 99.6%
- viability, T/C [18]: 91%
- viability, T/C (second compound 0.316 µM, first compound 3.16 µM): 98.3%
- viability, T/C (second compound 0.316 µM, first compound 10 µM): 12.9%
- viability, T/C [21]: 116%
- viability, T/C [22]: 93%
- viability, T/C [23]: 82.1%
- viability, T/C [24]: 106%
- viability, T/C (second compound 1 µM, first compound 3.16 µM): 109%
- viability, T/C (second compound 1 µM, first compound 10 µM): 17.9%
- viability, T/C [27]: 77.1%
- viability, T/C [28]: 97.2%
- viability, T/C [29]: 99.3%
- viability, T/C [30]: 96.8%
- viability, T/C (second compound 3.16 µM, first compound 3.16 µM): 99.6%
- viability, T/C (second compound 3.16 µM, first compound 10 µM): 23.3%
- viability, T/C [33]: 97.7%
- viability, T/C [34]: 90.7%
- viability, T/C [35]: 93.4%
- viability, T/C [36]: 86.5%
- viability, T/C (second compound 10 µM, first compound 3.16 µM): 92%
- viability, T/C (second compound 10 µM, first compound 10 µM): 24.6%

SMILES: CCc1c2c(nc3ccc(O)cc13)-c1cc3c(c(=O)n1C2)COC(=O)[C@]3(O)CC + Nc1ccc(C#CCN(C(=O)Cc2ncc(C(F)(F)F)cc2C(F)(F)F)c2ccc(F)cc2)nn1
- IC50 (second compound 0.0316 µM): 14.9 nM
- IC50 (second compound 0.1 µM): 13.6 nM
- IC50 (second compound 0.316 µM): 10.9 nM
- IC50 (second compound 1 µM): 12.7 nM
- IC50 (second compound 3.16 µM): 13.2 nM
- IC50 (second compound 10 µM): 12.7 nM
- viability, T/C [1]: 65.4%
- viability, T/C [2]: 63.6%
- viability, T/C [3]: 27.2%
- viability, T/C [4]: 18.6%
- viability, T/C [5]: 10.8%
- viability, T/C [6]: 2.67%
- viability, T/C [7]: 64.9%
- viability, T/C [8]: 60.5%
- viability, T/C [9]: 23.2%
- viability, T/C [10]: 14.3%
- viability, T/C [11]: 9.81%
- viability, T/C [12]: 2.89%
- viability, T/C [13]: 68%
- viability, T/C [14]: 53.6%
- viability, T/C [15]: 21.7%
- viability, T/C [16]: 14.7%
- viability, T/C [17]: 9.84%
- viability, T/C [18]: 1.82%
- viability, T/C [19]: 68.1%
- viability, T/C [20]: 58.1%
- viability, T/C [21]: 24.9%
- viability, T/C [22]: 15.6%
- viability, T/C [23]: 8.49%
- viability, T/C [24]: 2.23%
- viability, T/C [25]: 66.2%
- viability, T/C [26]: 58.9%
- viability, T/C [27]: 27.4%
- viability, T/C [28]: 17.6%
- viability, T/C [29]: 12.5%
- viability, T/C [30]: 3.21%
- viability, T/C [31]: 70.2%
- viability, T/C [32]: 57.9%
- viability, T/C [33]: 25.9%
- viability, T/C [34]: 20.9%
- viability, T/C [35]: 12.7%
- viability, T/C [36]: 5.79%
